Values of other authors in US5945105A, “Peptides of the antigen Sm-D and their use, in particular for the diagnostics of systemic lupus erythematosus (SLE)” (Imtec Immundiagnostika GmbH, priority 1995, dated 1999).

Test system: anti-SmD antibody-positive sera / SLE sera
Settings: cited from earlier work; for anti-SmD antibody-positive sera that reacted with the peptide: 18 anti-SmD antibody-positive sera (immuno blotting); for positive reactions in the ELISA, SLE sera: 165 SLE sera

| Substance | anti-SmD antibody-positive sera that reacted with the peptide | positive reactions in the ELISA, SLE sera |
| --- | --- | --- |
| 1-20: first region of the SmD protein, amino acids 1 through 20 (Barakat et al.) (MKLVRFLMKLSHETVTIELK; UniProt P62314 1-20, looked up, fragment) [Peptide 1-20] | 67% | 59% |
| 44-67: second region of the SmD protein, amino acids 44 through 67 (Barakat et al.) (KMTLKNREPVQLETLSIRGNNIRY; UniProt P62314 44-67, looked up, fragment) [Peptide 44-67] | 89% | 37% |
| 97-119: third region of the SmD protein, amino acids 97 through 119 (Barakat et al.) (GRGRGRGRGRGRGRGRGRGGPRR; UniProt P62314 97-119, looked up, fragment) [Peptide 97-119] | 33% | 1% |
